According to US9578878B2, “Antimicrobial efficacy of an oregano oil and caprylic acid blend” (Kemin Industries, Inc., priority 2014, dated 2017):

How the values were obtained:
[1] = system: Candida albicans (ATCC #10231); experiment: Microtiter assay, MIC to inhibit 90% growth; format: cell-based; details: 24 hours, n = 3
Protocol: (§1) For assays to find minimum inhibitory concentrations, all treatments were diluted in 10% DMSO and 0.5% Tween 80 to stabilize the samples.
(§2) Microorganisms Escherichia coli (ATCC #8739), Streptococcus sanguinis (ATCC #BAA-1455), Salmonella enteria subsp. enterica (ex Kauffmann and Edwards) Le Minor and Popoff serovar Typhimurium (ATCC #14028), Staphylococcus aureus (ATCC #6538), Pseudomonas aeruginosa (ATCC #9027), and Candida albicans (ATCC #10231) were obtained from a −80° C. internal stock culture. Aspergillus brasiliensis (ATCC #16404) was obtained from an internal stock solution culture stored at 4° C. E. coli, S. enterica S. aureus, and P. aeruginosa were grown in tryptic soy broth (TSB) and incubated at 37° C. for 24 h. S. sanguinis was grown in brain heart infusion broth (BHI). A. brasiliensis was plated on Sabourand dextrose agar (SDA) and incubated at 25° C. for 5-7 days. C. albicans was grown in Sabourand dextrose broth (SDB) and incubated at 25° C. for 48 h.
(§3) A. brasiliensis was harvested by adding 18 mL sterile saline to the plate and agitating the mold from the agar with a sterile inoculating loop. The inoculum was collected upon agitation. All suspended microbes were diluted with the same type of broth media used to grow each organism until an inoculum in the range of 10^6 CFU/mL was achieved. The inoculum concentration was determined by plate count method. Each strain was identified by plating on the appropriate growth media, E. coli, S. aureus, and P. aeruginosa on tryptic soy agar (Bacto, BD Sciences, Manassas, Va.) and C. albicans and A. brasiliensis on Sabrouand dextrose agar, to ensure there was no contamination of the inoculum.
(§4) Microtiter Assay. A microtiter assay was completed E. coli, S. aureus, P. aeruginosa, S. enteria, S. sanguinis, and C. albicans. Briefly, 10^6 cfu/ml preparations of each organism were made and enumerated using a Petroff-Hausser counting chamber. A 100 μl aliquot of the inoculums was dispensed into microtiter plate wells and a 100 μl aliquot of treatment was dispensed into the same wells. Two separate set of wells were prepared as positive and negative controls, with the positive wells containing 100 μl test organism in growth media and 100 μl sterile phosphate buffer and with the negative control wells containing 100 μl of the same growth media and 100 μl sterile phosphate buffer. The plates were incubated overnight at the appropriate temperature for each organism. A plate reader was used to track the kinetic growth curve using 405 nm and […]. The last time point at 24 hours was averaged and used to determine MIC90. Each treatment was conducted in triplicate wells.

[2] = system: Escherichia coli (ATCC #8739); experiment: Microtiter assay, MIC to inhibit 90% growth; format: cell-based; details: 24 hours, n = 3
Protocol: as §1, §2, §3, §4

[3] = system: Pseudomonas aeruginosa (ATCC #9027); experiment: Microtiter assay, MIC to inhibit 90% growth; format: cell-based; details: 24 hours, n = 3
Protocol: as §1, §2, §3, §4

Salmonella enterica = experiment: Microtiter assay, MIC to inhibit 90% growth; format: cell-based; details: 24 hours, n = 3
Protocol: as §1, §2, §3, §4

[4] = system: Staphylococcus aureus (ATCC #6538); experiment: Microtiter assay, MIC to inhibit 90% growth; format: cell-based; details: 24 hours, n = 3
Protocol: as §1, §2, §3, §4

[5] = system: Streptococcus sanguinis (ATCC #BAA-1455); experiment: Microtiter assay, MIC to inhibit 90% growth; format: cell-based; details: 24 hours, n = 3
Protocol: as §1, §2, §3, §4

A. brasiliensis = experiment: Poison agar assay; format: cell-based, Aspergillus brasiliensis
Protocol: as §2, §3
A poison agar assay was completed for A. brasiliensis. Potato dextrose agar was used as the plated medium. Inocula at 10^5 cfu/ml were prepared and counted using a Petroff-Hausser counting chamber. Each treatment was added directly into the control without DMSO and Tween 80 as used in the previous experiments. The diameter of no growth around a 6 mm blank disk after incubation at 25° C. for 72 hrs was compared to the untreated control.

## Cc1ccc(C(C)C)cc1O [Carvacrol, carvacrol]
[1]
  Minimum Inhibitory Concentration (MIC) to inhibit 90% growth, C. albicans: 0.10%
[2]
  Minimum Inhibitory Concentration (MIC) to inhibit 90% growth, E. coli: 0.10%
[3]
  Minimum Inhibitory Concentration (MIC) to inhibit 90% growth, P. aeruginosa: >0.1%
Salmonella enterica
  Minimum Inhibitory Concentration (MIC) to inhibit 90% growth, S. enterica: 0.05%
[4]
  Minimum Inhibitory Concentration (MIC) to inhibit 90% growth, S. aureus: 0.05%
[5]
  Minimum Inhibitory Concentration (MIC) to inhibit 90% growth, S. sanguinis: 0.05%
A. brasiliensis; 0.005% in agar
  % Inhibition from Control: 15.10%
  Diameter of Growth: 6.50 mm
A. brasiliensis; 0.010% in agar
  % Inhibition from Control: 64.70%
  Diameter of Growth: 2.70 mm
A. brasiliensis; 0.030% in agar
  % Inhibition from Control: 100.00%
  Diameter of Growth: 0.00 mm
A. brasiliensis; potato dextrose agar, 25° C., 72 hrs
  MIC90 in the poison agar assay: 0.03%
